Experimental data reported in US20130281467A1, “NOVEL MICROBICIDES” (SYNGENTA PARTICIPATIONS AG, priority 2010, published 2013).

Legend:
[1] = test system: Phaeosphaeria nodorum (Septoria nodorum); test: Fungicidal activity against Phaeosphaeria nodorum (Septoria nodorum) / wheat / leaf disc preventative (glume blotch); format: in vivo; settings: Parastagonospora nodorum, foliar, wheat leaf segments, inoculated 2 days after application, compared to untreated, read-out: disease control
Outline: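 Wheat cv. Kanzler leaf segments on agar, sprayed with diluted formulated compound, then spore-inoculated 2 days later. Kept at 20 °C, 75% rh, 12 h light/12 h dark; percent disease control versus untreated scored once untreated discs show disease, 5–7 days after application.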

[2] = test system: Blumeria graminis f. Sp. tritici (Erysiphe graminis f. sp. tritici); test: Fungicidal activity against Blumeria graminis f. sp. tritici / wheat / leaf disc preventative (powdery mildew on wheat); format: in vivo; settings: foliar, wheat leaf segments, inoculated 1 day after application, compared to untreated, read-out: disease control
Outline: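 Wheat cv. Kanzler leaf segments on agar were sprayed with the formulated compound diluted in water and inoculated with powdery mildew 1 day later. Incubation was at 20 °C and 60% rh: 24 h dark, then 12 h light/12 h dark. Percent disease control versus untreated was scored 6–8 days after application.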

Pyrenophora teres = test: Fungicidal activity against Pyrenophora teres / barley / leaf disc preventative (net blotch); format: in vivo; settings: foliar, barley leaf segments, inoculated 2 days after application, compared to untreated, read-out: disease control
Outline: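 Barley leaf segments (cv. Hasso) on agar sprayed with formulated compound in water, then spore-inoculated 2 days later. Kept at 20 °C, 65% rh, 12 h light/dark; disease control versus untreated scored 5-7 days after application.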

[3] = test system: Mycosphaerella graminicola (Septoria tritici); test: Fungicidal activity against Mycosphaerella graminicola (Septoria tritici) / liquid culture (Septoria blotch); format: cell-based; settings: Zymoseptoria tritici, 4-5 days after application, read-out: disease control (inhibition of growth, photometrically)
Outline: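 Cryo-stored conidia were suspended in potato dextrose broth and added to test compound dispensed from DMSO solution. Plates were held at 24° C., and growth inhibition was measured photometrically 4-5 days after application.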

[4] = test system: Monographella nivalis (Microdochium nivale); test: Fungicidal activity against Monographella nivalis (Microdochium nivale) / liquid culture (foot rot cereals); format: cell-based; settings: 4-5 days after application, read-out: disease control (inhibition of growth, photometrically)
Outline: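 Conidia in potato dextrose broth added to microtiter wells holding test compound in DMSO. Incubated at 24° C.; growth inhibition read photometrically 4-5 days after application.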

Gaeumannomyces graminis = test: Fungicidal activity against Gaeumannomyces graminis / liquid culture (take-all of cereals); format: cell-based; settings: 4-5 days after application, read-out: disease control (inhibition of growth, photometrically)
Outline: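 Cryostored mycelial fragments in potato dextrose broth added to 96-well plates with test compound in DMSO. Plates kept at 24° C; growth inhibition measured photometrically 4-5 days after application.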

[5] = test system: Puccinia recondita f. sp. tritici; test: Fungicidal activity against Puccinia recondita f. sp. tritici / wheat / leaf disc preventative (brown rust); format: in vivo; settings: foliar, wheat leaf segments, inoculated 1 day after application, compared to untreated, read-out: disease control
Outline: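 Wheat leaf segments (cv. Kanzler) on agar sprayed with formulated compound in water, inoculated with spore suspension 1 day later. Incubated at 19° C, 75% rh, 12 h light/12 h dark; percent disease control versus untreated scored 7-9 days after application.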

[6] = test system: Mycosphaerella arachidis (Cercospora arachidicola); test: Fungicidal activity against Mycosphaerella arachidis (Cercospora arachidicola) / liquid culture (early leaf spot); format: cell-based; settings: 4-5 days after application, read-out: disease control (inhibition of growth, photometrically)
Outline: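 Cryopreserved conidia in potato dextrose broth added to compound in DMSO in microtiter plates. Incubation at 24 °C; growth inhibition read photometrically 4-5 days after application.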

[7] = test system: Thanatephorus cucumeris (Rhizoctonia solani); test: Fungicidal activity against Thanatephorus cucumeris (Rhizoctonia solani) / liquid culture (foot rot, damping-off); format: cell-based; settings: 3-4 days after application, read-out: disease control (inhibition of growth, photometrically)
Outline: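 Fungal mycelia fragments from fresh liquid culture were mixed into potato dextrose broth and added to test compounds supplied in DMSO. Incubation was at 24° C. Growth inhibition was read photometrically 3-4 days after application.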

[8] = test system: Glomerella lagenarium (Colletotrichum lagenarium); test: Fungicidal activity against Glomerella lagenarium (Colletotrichum lagenarium) / liquid culture (anthracnose); format: cell-based; settings: Colletotrichum orbiculare, 3-4 days after application, read-out: disease control (inhibition of growth, photometrically)
Outline: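 Cryostored conidia mixed into potato dextrose broth were added to test compound in DMSO. Plates were incubated at 24° C. Growth inhibition was measured photometrically 3-4 days after application.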

[9] = test system: Botryotinia fuckeliana (Botrytis cinerea); test: Fungicidal activity against Botryotinia fuckeliana (Botrytis cinerea) / liquid culture (gray mould); format: cell-based; settings: 3-4 days after application, read-out: disease control (inhibition of growth, photometrically)
Outline: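 Conidia from cryogenic storage were mixed into Vogels broth and added to wells containing compound in DMSO. Plates incubated at 24 °C; growth inhibition read photometrically 3–4 days after application.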

Alternaria solani = test: Fungicidal activity against Alternaria solani / tomato / leaf disc (early blight); format: in vivo; settings: foliar, tomato leaf disks, inoculated 2 days after application, compared to untreated, read-out: disease control
Protocol: Fungicidal Activity Against Alternaria solani/Tomato/Leaf Disc (Early Blight) Tomato leaf disks cv. Baby were placed on agar in multiwell plates (24-well format) and sprayed with the formulated test compound diluted in water. The leaf disks were inoculated with a spore suspension of the fungus 2 days after application. The inoculated leaf disks were incubated at 23° C./21° C.

Row | Structure (SMILES) | pest or weed control at 200 ppm [1] | pest or weed control at 200 ppm [2] | pest or weed control at 200 ppm (Pyrenophora teres) | inhibition at 200 ppm [3] | inhibition at 200 ppm [4] | inhibition at 200 ppm (Gaeumannomyces graminis) | pest or weed control at 200 ppm [5] | melting point | inhibition at 200 ppm [6] | inhibition at 200 ppm [7] | inhibition at 200 ppm [8] | inhibition at 200 ppm [9] | pest or weed control at 200 ppm (Alternaria solani)
1 | Clc1ccc(Cc2cccc(-c3ncc4c(n3)CCCC4)n2)cn1 [Compound 1, 2-[6-(6-chloropyridin-3-ylmethyl)-pyridin-2-yl]-5,6,7,8-tetrahydroquinazoline] | ≥ 80% | ≥ 80% | ≥ 80% | ≥ 80% | ≥ 80% | ≥ 80% | ≥ 80% | 115 to 120 °C | ≥ 80% | ≥ 80% | ≥ 80% | ≥ 80% | 
2 | Clc1ccccc1Cc1cccc(-c2ncc3c(n2)CCOC3)n1 [Compound 3] | ≥ 80% | ≥ 80% | ≥ 80% | ≥ 80% | ≥ 80% | ≥ 80% | ≥ 80% | 112 to 113 °C | ≥ 80% | ≥ 80% | ≥ 80% | ≥ 80% | ≥ 80%
3 | Clc1cccc(Cc2cccc(-c3ncc4c(n3)CCOC4)n2)c1 [Compound 4] | ≥ 80% | ≥ 80% | ≥ 80% | ≥ 80% | ≥ 80% | ≥ 80% | ≥ 80% | 148 to 149 °C | ≥ 80% | ≥ 80% | ≥ 80% | ≥ 80% | 
4 | Clc1ccc(Cc2cccc(-c3ncc4c(n3)CCOC4)n2)cc1 [Compound 5] | ≥ 80% | ≥ 80% | ≥ 80% | ≥ 80% | ≥ 80% | ≥ 80% | ≥ 80% | 104 to 106 °C | ≥ 80% | ≥ 80% | ≥ 80% | ≥ 80% | ≥ 80%
5 | Cc1ccccc1Cc1cccc(-c2ncc3c(n2)CCOC3)n1 [Compound 6, 2-[6-(2-methylbenzyl)-pyridin-2-yl]-7,8-dihydro-5H-pyrano[4,3-d]pyrimidine] | ≥ 80% | ≥ 80% | ≥ 80% | ≥ 80% | ≥ 80% | ≥ 80% | ≥ 80% | 132 to 133 °C | ≥ 80% |  | ≥ 80% | ≥ 80% | ≥ 80%
6 | COc1ccccc1Cc1cccc(-c2ncc3c(n2)CCOC3)n1 [Compound 7] | ≥ 80% | ≥ 80% | ≥ 80% | ≥ 80% | ≥ 80% | ≥ 80% | ≥ 80% | 135 to 137 °C | ≥ 80% |  | ≥ 80% | ≥ 80% | ≥ 80%
7 | CC1(C)CCc2cnc(-c3cccc(Cc4ccccc4)n3)nc2C1 [Compound 11] | ≥ 80% | ≥ 80% | ≥ 80% | ≥ 80% | ≥ 80% | ≥ 80% | ≥ 80% | 226 to 228 °C | ≥ 80% | ≥ 80% | ≥ 80% | ≥ 80% | 
8 | CO/N=C1\CCc2nc(-c3cccc(Cc4ccccc4)n3)ncc2C1 [Compound 18] | ≥ 80% | ≥ 80% | ≥ 80% | ≥ 80% |  | ≥ 80% | ≥ 80% | 175 to 177 °C | ≥ 80% | ≥ 80% | ≥ 80% | ≥ 80% | 
9 | CO[C@@H]1CCc2nc(-c3cccc(Cc4ccccc4)n3)ncc2C1 [Compound 25] | ≥ 80% | ≥ 80% | ≥ 80% | ≥ 80% | ≥ 80% |  | ≥ 80% |  | ≥ 80% |  | ≥ 80% | ≥ 80% | ≥ 80%
10 | Clc1ccccc1Cc1cccc(-c2ncc3c(n2)CCCCC3)n1 [Compound 33] | ≥ 80% | ≥ 80% | ≥ 80% | ≥ 80% | ≥ 80% | ≥ 80% | ≥ 80% |  | ≥ 80% | ≥ 80% | ≥ 80% | ≥ 80% | ≥ 80%
